The text below walks through data of US7521057B2, “Lamprey GnRH-III polypeptides and methods of making thereof” (University of New Hampshire, priority 2002, dated 2009).

Like-named read-outs stand apart in the source and are kept apart here. [ ]: non-standard residue; d: D form. pGlu = O=C1CC[C@@H](C(=O)O)N1

The Ki is the equilibrium dissociation constant of an inhibitor or competing ligand from its target.

Series [1] deals with type-II GnRH binding site. As to the kind of experiment: Competition binding in pituitary of male sea lampreys, type-II GnRH binding site. More on the design: species or system P. marinus. The following applies: for Ki: pituitary of adult male land-locked P. marinus, tracer iodinated [DAla6, Pro9Net]-mammalian GnRH, K1 from IC50. As to the method:
(§1) In another study, the binding affinity in the pituitary of male sea lampreys was determined with lamprey GnRH-I and -III analogs in an effort to better understand the structure-activity relations of the lamprey GnRH molecule (Mateme and Sower, unpublished). Competition studies were performed using the iodinated DAla^6, Pro^9Net]-mammalian GnRH as the tracer with each of the following analogs: [D-Phe^2, Gly^6]-lGnRH-I (Peninsula Labs, Cali.); and the following lGnRH-III analogs: [D-Phe^2,6, Pro^3], [D-Phe^2, Gly^6], and [Ac-Delta-3Pro, 4FDPhe^2-D-Trp^3,6] from American Peptide, Cali. […] The level of significance was P<0.0001 See TABLE 5 for the results of these experiments. The results shown in Table 5 summarize experiments using various analogs.
(§2) Inhibition constants (K1) of lamprey GnRH-putative antagonists in the pituitary of adult male land-locked P. marinus. […] The data were plotted on a logit-log plot and the K1 determined from the IC50 using the Prism software.

The target of series [2] is type-I GnRH-binding site. As to the kind of experiment: Competition binding in pituitary of male sea lampreys, type-I GnRH binding site. Set-up: species or system P. marinus. The following applies: for Ki: pituitary of adult male land-locked P. marinus, tracer iodinated [DAla6, Pro9Net]-mammalian GnRH, K1 from IC50. As to the method:
as §1, §2

Series [3] is described as follows: Plasma GnRHa after injection of sustained-release microspheres or implants in lampreys. Type of series: in vivo, sea lamprey. As to the method: Thus, experiments were conducted to determine the optimal injection site and delivery agent that would best ensure a slow, constant release of the active compound, in this case, D-Ala^6 Pro^9Net mammal GnRH (GnRHa) over a period of four weeks. In the plasma, GnRH is easily degraded by protolytic enzymes. Therefore a simple injection will not elevate plasma GnRH levels for the duration of time required to ensure the appropriate reproductive effect. If a GnRH analog were used to sterilize wild fish, the method would have to maintain high levels of GnRH in the plasma for the length of the spawning season, or about 6 weeks in the case of sea lamprey in the Great Lakes. It was believed that controlled release of GnRH could be attained by injection of biodegradable microspheres or implants containing a GnRH analog, and experiments were performed to determine if high enough GnRH levels could be maintained for the required duration using such a method.
In Applicant's experiments microspheres (in a dose of 75 ug GnRHa/lamprey) and 2 mm implants were injected either intramuscularly (IM) or intraperitoneally (IP). At week 1, plasma GnRHa was detected in two-thirds of the lampreys injected IP, either with microspheres (5.0+/−1.3 ng/ml) or implants (1.6+/−0.3 ng/ml).
Only the lampreys injected IM with microspheres still had detectable levels of GnRHa after 3 weeks (2.9+/−1.5 ng/ml). Based on the results of these experiments, the best method of sustained release of GnRHa was determined to be via IM injection using microspheres.

The subject of series [4] is adult sea lampreys. As to conditions: cited from earlier work; for plasma estradiol: adult female lampreys, injections; for ovulation / timing of ovulation: female lampreys; for gametogenesis: male and female sea lampreys, previous studies.
Series [5] concerns adult male and female sea lamprey. The following applies: compared to controls, cited from earlier work; for spawning behavior: experiment 2, females.
Setting [6] is: pituitary of male sea lampreys, in words.

With `CCNC(=O)[C@@H]1CCCN1C(=O)[C@H](CCCNC(=N)N)NC(=O)[C@H](CC(C)C)NC(=O)[C@@H](C)NC(=O)[C@H](Cc1ccc(O)cc1)NC(=O)[C@H](CO)NC(=O)[C@H](Cc1c[nH]c2ccccc12)NC(=O)[C@H](Cc1c[nH]cn1)NC(=O)[C@@H]1CCC(=O)N1` [[DAla^6, Pro^9Net]-m GnRH, [DAla^6, Pro^9Net]-mammalian GnRH], the inhibitory constant (Ki) in series [1] was 89 nM; in series [2], 0.00311 nM. In series [1] (setting [6]), the “affinity for type-II GnRH binding site” value was “high affinity”. Moreover, in series [2] (setting [6]), the “affinity for type-I GnRH binding site” value is on record as “high affinity”. In addition, the level at 504 h in series [3] (plasma, 75 ug GnRHa/lamprey, after 3 weeks, microspheres injected IM) turned out to be 2.9 ng/mL. Besides, the level at 168 h in series [3] (plasma, 75 ug GnRHa/lamprey, week 1, microspheres injected IM) stood at 4.2 ng/mL; in series [3] (plasma, week 1, 2 mm implants injected IP) it was 1.6 ng/mL; in series [3] (plasma, week 1, microspheres injected IP, 75 ug GnRHa/lamprey), 5 ng/mL. This compound gave a level at 336 h in series [3] (plasma, 75 ug GnRHa/lamprey, week 2, microspheres injected IM) of 3.1 ng/mL. The “share of lampreys with detectable plasma GnRHa” value in series [3] (week 1, injected IP, microspheres or implants) is on record as “two-thirds”; in series [3] (week 1, microspheres injected IM), “Ninety percent”; in series [3] (week 2, IP with microspheres and IP with implants) it was “less than thirty percent”; in series [3] (week 2, microspheres injected IM) it was “ninety-two percent”. Further, the plasma estradiol result in series [4] was “significantly elevated”. Besides, the “ovulation / timing of ovulation” value in series [4] is on record as “advanced ovulation by at least several weeks”.

With “[Ac-3 Pro^1, 4-FD-Phe^3, D-Trp^3,6] mammalian GnRH”, in series [4], the plasma estradiol entry is on record as “no apparent effect”, the “ovulation / timing of ovulation” value is given as “no apparent effect” and the gametogenesis result is “decrease gametogenesis”.

On to “[D-Ala^6, Pro^9 Net lamprey GnRH] [lamprey GnRH agonist]”, for which the spawning behavior entry in series [5] is listed as “inhibited”. Moreover, the spawning activity result in series [5] (experiment 2, males) is reported as “stimulated earlier spawning activity”; in series [5] (experiment 3, males), “inhibited spawning activity”.

Turning to [D-Phe^2,6, Pro^3] lamprey GnRH, in series [4], the “ovulation / timing of ovulation” value is “inhibited ovulation” and the gametogenesis entry is “decrease gametogenesis”. Also, in series [4] (male sea lampreys), the plasma progesterone levels result is “reduced” and the spermiation entry is recorded as “inhibited spermiation”. For the same compound, the spawning behavior entry in series [5] was “inhibited”. Further, in series [5] (experiment 2, males), the spawning activity entry was “stimulated earlier spawning activity”. For the same compound, the spawning activity entry in series [5] (experiment 3, males) is recorded as “induced earlier spawning activity”.

Take “[D-Phe^2, Gly^6]-lGnRH-I [[D-Phe^2, Gly^6]-1GnRH-I]”: the Ki in series [1] came out at 5650 nM; in series [2], 1.37 nM.

On to “lamprey GnRH-I: native decapeptide pGlu His Tyr Ser Leu Glu Trp Lys Pro Gly-NH2 (Table 1) ([pGlu]HYSLEWKPG-NH2; SMILES CC(C)C[C@H](NC(=O)[C@H](CO)NC(=O)[C@H](Cc1ccc(O)cc1)NC(=O)[C@H](Cc1c[nH]cn1)NC(=O)[C@@H]1CCC(=O)N1)C(=O)N[C@@H](CCC(=O)O)C(=O)N[C@@H](Cc1c[nH]c2ccccc12)C(=O)N[C@@H](CCCCN)C(=O)N1CCC[C@H]1C(=O)NCC(N)=O)”, for which, in series [4] (adult sea lampreys), the spermiation/ovulation result is “induce” and the steroidogenesis result is listed as “induce”. Also, the spawning activity result in series [5] (experiment 3, males) is reported as “delayed spawning activity”.
